Active and inactive are the calls of the source.
What was measured:
[1] = target: Sphingosine 1-phosphate receptor 4 (Homo sapiens, UniProt O95977); experiment: Fluorescence dose response cell-based high throughput screening assay for agonists of the Sphingosine 1-Phosphate Receptor 4 (S1P4). [Related pubchem assays: 1509 (Primary screen.), 1523 (Confirmation screen in triplicates.)]; type: functional
[2] = target: Sphingosine 1-phosphate receptor 1 (Homo sapiens, UniProt P21453); experiment: Fluorescence-based counterscreen assay for S1P4 agonists: Cell-based dose response high throughput screening assay to identify agonists of the Sphingosine 1-Phosphate Receptor 1 (S1P1). [Related pubchem assays (depositor defined):AID1509, AID1523, AID1801, AID463107, AID463118, AID463119, AID463122, AID463123, AID463129, AID463225, AID504400, AID504460]; type: functional
Sequence of Sphingosine 1-phosphate receptor 1 (P21453 whole entry): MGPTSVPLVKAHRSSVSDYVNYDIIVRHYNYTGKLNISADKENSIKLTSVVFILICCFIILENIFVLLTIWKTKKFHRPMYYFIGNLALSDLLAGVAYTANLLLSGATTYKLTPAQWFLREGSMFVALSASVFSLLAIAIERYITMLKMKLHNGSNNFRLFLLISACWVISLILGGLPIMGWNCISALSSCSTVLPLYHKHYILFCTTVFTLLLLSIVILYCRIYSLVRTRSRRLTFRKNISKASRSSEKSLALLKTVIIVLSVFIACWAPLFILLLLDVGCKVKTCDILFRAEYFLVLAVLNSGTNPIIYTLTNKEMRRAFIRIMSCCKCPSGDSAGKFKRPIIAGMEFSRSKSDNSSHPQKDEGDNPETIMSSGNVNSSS

Tumor necrosis factor = Tumor necrosis factor (Homo sapiens, UniProt P01375); experiment: analog potency on TNFa NF-kB signaling – cell-based, set 3, SAR follow-up (AID 2801); type: functional
Sequence of Tumor necrosis factor (P01375 whole entry, the tested form may be a part): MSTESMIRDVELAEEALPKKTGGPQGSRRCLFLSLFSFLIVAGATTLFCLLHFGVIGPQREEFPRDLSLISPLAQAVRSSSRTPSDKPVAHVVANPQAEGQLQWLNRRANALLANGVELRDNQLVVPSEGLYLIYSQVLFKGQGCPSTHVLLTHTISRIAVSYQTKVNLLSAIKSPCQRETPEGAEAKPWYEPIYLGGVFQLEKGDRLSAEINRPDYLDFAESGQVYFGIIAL

[3] = target: Nucleotide-binding oligomerization domain-containing protein 2 (Homo sapiens, UniProt Q9HC29); experiment: inhibition of MDP-driven NOD2 NF-kB reporter – cell-based, set 3, SAR follow-up (AID 2799); type: functional
Sequence of Nucleotide-binding oligomerization domain-containing protein 2 (Q9HC29 whole entry, the tested form may be a part): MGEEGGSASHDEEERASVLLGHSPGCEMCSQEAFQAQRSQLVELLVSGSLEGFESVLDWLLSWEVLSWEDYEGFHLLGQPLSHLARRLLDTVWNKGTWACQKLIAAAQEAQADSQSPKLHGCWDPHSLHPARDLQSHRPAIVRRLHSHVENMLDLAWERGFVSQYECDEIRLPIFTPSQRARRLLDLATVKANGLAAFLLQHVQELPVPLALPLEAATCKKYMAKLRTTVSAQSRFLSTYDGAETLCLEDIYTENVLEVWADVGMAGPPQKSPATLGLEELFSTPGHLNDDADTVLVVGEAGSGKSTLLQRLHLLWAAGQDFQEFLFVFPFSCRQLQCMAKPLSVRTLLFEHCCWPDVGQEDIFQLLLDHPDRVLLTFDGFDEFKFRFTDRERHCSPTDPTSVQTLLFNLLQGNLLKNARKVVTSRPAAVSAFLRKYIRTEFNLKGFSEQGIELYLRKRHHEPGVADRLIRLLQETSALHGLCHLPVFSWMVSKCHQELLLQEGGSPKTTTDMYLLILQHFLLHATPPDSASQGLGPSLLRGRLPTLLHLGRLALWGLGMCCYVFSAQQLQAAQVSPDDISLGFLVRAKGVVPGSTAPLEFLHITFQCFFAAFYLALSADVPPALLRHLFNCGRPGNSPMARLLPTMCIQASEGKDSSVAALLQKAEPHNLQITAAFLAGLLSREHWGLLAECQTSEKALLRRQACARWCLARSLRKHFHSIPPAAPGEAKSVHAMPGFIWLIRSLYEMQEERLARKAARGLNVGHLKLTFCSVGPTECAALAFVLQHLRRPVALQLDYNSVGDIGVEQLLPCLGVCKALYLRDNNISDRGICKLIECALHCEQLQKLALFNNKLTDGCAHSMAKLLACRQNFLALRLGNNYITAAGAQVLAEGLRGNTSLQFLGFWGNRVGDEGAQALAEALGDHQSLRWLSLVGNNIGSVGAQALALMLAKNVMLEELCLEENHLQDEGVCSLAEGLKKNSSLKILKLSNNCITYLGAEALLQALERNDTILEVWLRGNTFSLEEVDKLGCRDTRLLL

HEK293 = experiment: SAR analysis of compounds that are cytotoxic to HEK293 - Set 3. [Related pubchem assays (depositor defined):AID1575, AID1578, AID1848, AID1849, AID2001, AID2333, AID2334, AID2335, AID2337, AID2469]; type: functional, cell-based; conditions: Homo sapiens
[4] = target: Nucleotide-binding oligomerization domain-containing protein 1 (Homo sapiens, UniProt Q9Y239); experiment: SAR analysis of compounds that inhibit NOD1 - Set 3. [Related pubchem assays (depositor defined):AID1566, AID1575, AID1578, AID1849, AID1852, AID2333, AID2335, AID2466]; type: functional
Sequence of Nucleotide-binding oligomerization domain-containing protein 1 (Q9Y239 whole entry, the tested form may be a part): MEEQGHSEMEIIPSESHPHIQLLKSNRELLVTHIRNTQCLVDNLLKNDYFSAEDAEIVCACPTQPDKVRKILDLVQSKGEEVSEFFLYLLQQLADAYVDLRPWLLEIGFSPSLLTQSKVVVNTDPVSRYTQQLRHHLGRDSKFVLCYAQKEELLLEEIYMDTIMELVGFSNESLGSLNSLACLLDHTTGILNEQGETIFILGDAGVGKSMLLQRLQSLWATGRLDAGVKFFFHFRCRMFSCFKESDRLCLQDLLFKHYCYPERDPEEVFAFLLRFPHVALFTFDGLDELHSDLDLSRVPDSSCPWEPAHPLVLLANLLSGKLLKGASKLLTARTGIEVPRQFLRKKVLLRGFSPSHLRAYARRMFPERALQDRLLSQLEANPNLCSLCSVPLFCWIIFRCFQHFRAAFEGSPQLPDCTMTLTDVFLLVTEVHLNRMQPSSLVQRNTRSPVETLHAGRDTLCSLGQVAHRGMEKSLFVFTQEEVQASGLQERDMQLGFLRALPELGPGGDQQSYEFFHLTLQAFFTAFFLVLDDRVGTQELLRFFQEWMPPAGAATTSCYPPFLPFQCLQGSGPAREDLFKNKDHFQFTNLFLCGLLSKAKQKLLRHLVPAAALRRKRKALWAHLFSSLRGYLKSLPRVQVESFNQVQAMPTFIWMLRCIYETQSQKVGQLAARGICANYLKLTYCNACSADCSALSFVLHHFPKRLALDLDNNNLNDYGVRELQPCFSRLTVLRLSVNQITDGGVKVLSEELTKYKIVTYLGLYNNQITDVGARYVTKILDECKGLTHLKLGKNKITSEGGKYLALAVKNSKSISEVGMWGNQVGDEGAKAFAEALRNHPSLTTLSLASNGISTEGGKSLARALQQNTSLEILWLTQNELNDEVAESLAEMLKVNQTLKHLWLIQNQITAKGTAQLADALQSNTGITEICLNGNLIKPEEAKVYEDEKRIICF

[5] = target: T1, Kappa-type opioid receptor (Homo sapiens, UniProt P41145); experiment: SAR analysis of small molecule agonists of the kappa opioid receptor via a luminescent beta-arrestin assay - Set 3. [Related pubchem assays (depositor defined):AID1777, AID1785, AID1786, AID1966, AID2133, AID2136, AID2284, AID2500]; type: functional
T1 sequence (P41145 whole entry): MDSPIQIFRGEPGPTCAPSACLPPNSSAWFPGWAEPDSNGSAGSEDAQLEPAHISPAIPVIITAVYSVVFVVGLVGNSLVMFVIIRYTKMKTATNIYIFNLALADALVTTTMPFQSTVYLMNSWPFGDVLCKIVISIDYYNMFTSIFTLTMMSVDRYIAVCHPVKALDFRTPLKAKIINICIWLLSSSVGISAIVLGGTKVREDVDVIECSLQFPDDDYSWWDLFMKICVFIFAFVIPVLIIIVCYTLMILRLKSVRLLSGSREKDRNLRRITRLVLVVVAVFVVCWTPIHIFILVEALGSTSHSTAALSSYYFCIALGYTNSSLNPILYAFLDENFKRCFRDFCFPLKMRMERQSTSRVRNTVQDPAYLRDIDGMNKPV

[6] = target: Delta-type opioid receptor (Homo sapiens, UniProt P41143); experiment: SAR Analysis of Agonists of the DOR Receptor using an Image-Based Assay - Set 3. [Related pubchem assays (depositor defined):AID1777, AID1786]; type: functional
Sequence of Delta-type opioid receptor (P41143 whole entry): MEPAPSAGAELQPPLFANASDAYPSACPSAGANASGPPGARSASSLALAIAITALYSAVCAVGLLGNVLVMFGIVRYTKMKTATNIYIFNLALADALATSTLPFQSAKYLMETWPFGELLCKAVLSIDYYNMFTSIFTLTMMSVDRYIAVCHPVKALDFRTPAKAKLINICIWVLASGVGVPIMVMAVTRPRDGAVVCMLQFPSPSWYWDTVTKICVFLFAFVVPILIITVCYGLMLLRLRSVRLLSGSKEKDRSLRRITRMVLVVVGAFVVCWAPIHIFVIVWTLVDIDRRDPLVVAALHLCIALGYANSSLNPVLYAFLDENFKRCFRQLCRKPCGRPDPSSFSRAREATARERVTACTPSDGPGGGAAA

Mu-type opioid receptor = Mu-type opioid receptor (Homo sapiens, UniProt P35372); experiment: SAR Analysis of Agonists of the MOR Receptor using an Image-Based Assay - Set 3. [Related pubchem assays (depositor defined):AID1777, AID1785, AID1786, AID1966, AID2133, AID2136, AID2284, AID2285, AID2352]; type: functional
Sequence of Mu-type opioid receptor (P35372 whole entry): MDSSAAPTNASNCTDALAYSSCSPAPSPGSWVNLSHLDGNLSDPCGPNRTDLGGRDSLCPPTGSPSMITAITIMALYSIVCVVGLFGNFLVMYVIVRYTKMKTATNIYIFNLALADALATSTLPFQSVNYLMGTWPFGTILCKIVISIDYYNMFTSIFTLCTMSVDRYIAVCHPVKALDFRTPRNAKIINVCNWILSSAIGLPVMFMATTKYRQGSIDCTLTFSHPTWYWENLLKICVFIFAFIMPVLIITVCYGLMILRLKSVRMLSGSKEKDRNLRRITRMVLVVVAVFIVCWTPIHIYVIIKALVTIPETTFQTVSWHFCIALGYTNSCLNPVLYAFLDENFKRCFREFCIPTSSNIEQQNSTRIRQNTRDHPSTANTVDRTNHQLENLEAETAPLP

[7] = target: T1, Kappa-type opioid receptor; experiment: kappa opioid receptor activation by imaging – image-based, set 3, SAR follow-up (AID 488833); type: functional
[8] = PhoP promoter GFP reporter reduction in Typhimurium – purified and synthesized compounds, set 2, PhoP regulon inhibitor project, dose response (AID 2831); type: functional
Mucolipin-3 = Mucolipin-3 (Homo sapiens, UniProt Q8TDD5); experiment: Fluorescence counterscreen assay for […] agonists: dose response cell-based high-throughput screening assay to identify agonists of the transient receptor potential channel ML3 (TRPML3). [Related pubchem assays: 1424, 1448 ]; type: functional
Sequence of Mucolipin-3 (Q8TDD5 whole entry): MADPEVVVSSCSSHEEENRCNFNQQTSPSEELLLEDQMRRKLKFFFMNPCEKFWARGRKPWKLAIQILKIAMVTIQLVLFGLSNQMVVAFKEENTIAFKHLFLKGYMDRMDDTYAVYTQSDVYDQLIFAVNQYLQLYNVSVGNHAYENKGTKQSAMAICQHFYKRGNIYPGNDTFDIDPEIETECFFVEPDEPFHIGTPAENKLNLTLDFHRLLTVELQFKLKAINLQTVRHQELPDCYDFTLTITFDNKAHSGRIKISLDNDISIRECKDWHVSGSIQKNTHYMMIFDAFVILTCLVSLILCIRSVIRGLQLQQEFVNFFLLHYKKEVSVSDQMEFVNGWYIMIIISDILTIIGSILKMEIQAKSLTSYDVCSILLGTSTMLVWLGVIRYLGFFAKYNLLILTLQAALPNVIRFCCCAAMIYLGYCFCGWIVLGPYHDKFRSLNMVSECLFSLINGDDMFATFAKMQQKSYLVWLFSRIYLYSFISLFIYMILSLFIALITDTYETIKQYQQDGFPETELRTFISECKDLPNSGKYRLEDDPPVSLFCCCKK

Ion channel NompC = Ion channel NompC (Danio rerio, UniProt Q7T1G6); experiment: Dose response cell-based high-throughput screening assay for agonists of the transient receptor potential channel N1 (TRPN1). [Related pubchem assays (depositor defined):AID1424, AID1448]; type: functional
[9] = target: T2, Carboxy-terminal domain RNA polymerase II polypeptide A small phosphatase 1 (Homo sapiens, UniProt Q9GZU7); experiment: CTDSP1 inhibitors, concentration-response, biochemical, absorbance readout, ultra-high-throughput screen actives (AID 540297); type: functional
T2 sequence (Q9GZU7 whole entry): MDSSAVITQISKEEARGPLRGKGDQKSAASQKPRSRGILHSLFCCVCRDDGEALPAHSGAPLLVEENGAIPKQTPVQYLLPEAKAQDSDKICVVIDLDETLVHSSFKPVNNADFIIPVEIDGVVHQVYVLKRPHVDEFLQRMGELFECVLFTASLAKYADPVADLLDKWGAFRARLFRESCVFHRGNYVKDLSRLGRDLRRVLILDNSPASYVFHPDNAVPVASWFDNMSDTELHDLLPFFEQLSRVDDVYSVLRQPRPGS

[10] = decrease of insulin promoter-GFP reporter – imaging, high-content screening, mouse beta cells (AID 1628); type: functional; conditions: MIN6
[11] = MIN6 cell viability loss – mouse insulinoma, cytotoxicity control, dose response (AID 2122); type: functional;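 further: confirmatory high-throughput counterscreen run to flag cytotoxic compounds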

Sequence of Sphingosine 1-phosphate receptor 4 (O95977 whole entry): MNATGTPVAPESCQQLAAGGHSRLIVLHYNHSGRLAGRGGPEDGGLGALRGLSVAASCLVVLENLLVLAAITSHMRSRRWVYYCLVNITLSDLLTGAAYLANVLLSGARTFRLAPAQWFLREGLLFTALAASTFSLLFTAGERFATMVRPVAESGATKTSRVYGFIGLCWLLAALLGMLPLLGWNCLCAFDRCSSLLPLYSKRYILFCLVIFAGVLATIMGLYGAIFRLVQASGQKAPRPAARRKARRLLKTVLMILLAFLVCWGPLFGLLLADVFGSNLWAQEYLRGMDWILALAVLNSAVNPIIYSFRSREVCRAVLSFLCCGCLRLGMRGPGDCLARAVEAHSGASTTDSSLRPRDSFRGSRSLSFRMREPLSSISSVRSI

**Q.** What does the source list for CCOC(=O)c1c(-n2c(C)cc(C=O)c2C)sc2c1CCCC2?
**A.** EC50 [1]: > 16.6 µM (not active); EC50 [2]: > 49.8 µM (inactive)

**Q.** Which results are given for N#Cc1ccccc1S(=O)(=O)n1c(N)nc2ccccc21?
**A.** IC50 (Tumor necrosis factor): > 20 µM (inactive); IC50 [3]: > 20 µM (inactive); IC50 (HEK293): > 20 µM (inactive); IC50 [4]: > 20 µM (inactive)

**Q.** Which results are given for CC(C)c1ccc(CSc2nnc(-c3ccccn3)n2Cc2cccs2)cc1?
**A.** EC50 [5]: 3.66 µM (active); EC50 [6]: > 32 µM (inactive); EC50 (Mu-type opioid receptor): > 32 µM (inactive); EC50 [7]: 2.17 µM (active)

**Q.** With COc1ccc(CNC(=S)Nc2ccncc2)cc1 as the compound, how does the IC50 [8] read?
**A.** > 150 µM (active)

**Q.** For CCCc1ccc(C(=O)NC(=O)c2ccccc2O)cc1, which EC50 (Mucolipin-3) is on record?
**A.** 14.7 µM (not active)

**Q.** What about the EC50 (Ion channel NompC) of the same compound?
**A.** > 3.32 µM (inactive)

**Q.** What about the IC50 [9] of the same compound?
**A.** 8.68 µM (active)

**Q.** What about the IC50 [10] of the same compound?
**A.** 4.87 µM (active)

**Q.** What about the IC50 [11] of the same compound?
**A.** 3.97 µM (active)

From ChEMBL document CHEMBL1201862, “PubChem BioAssay data set” (2004)
